Key:
[1] = target: human TOR (FLAG-TOR) (Homo sapiens, UniProt P42345); test: mTOR enzyme assay (DELFIA format, purified enzyme); type: biochemical; details: 800 ng/ml FLAG-TOR, 100 μM ATP, 1.25 μM His6-S6K; read-out: mTOR Kinase IC50
[2] = target: PI3Kα (Homo sapiens, UniProt P42336); test: PI3Kα fluorescence polarization assay; type: biochemical; details: 20 μM PIP2, 25 μM ATP
Protocol: The reaction buffer was 20 mM HEPES pH7.5, 2 mM MgCl2, 0.05% CHAPS, and 0.01% βME (added fresh). The substrate solution was 40 μM PIP2 (diC8, Echelon, Salt Lake City Utah cat #P-4508, 1 mM in water) and 50 μM ATP in the reaction buffer. Nunc 384-well black polypropylene fluorescent plates were used for PI3K assays. The assay is run by putting 9.5 μl of freshly diluted enzyme in the reaction buffer per well, adding 0.5 μl of diluted drug or DMSO, and mixing. Then 10 μl of the substrate solution is added to each well to start the reaction. A final concentration of 20 μM PIP2 and 25 μM ATP in the reaction was used. Reactions were allowed to proceed for 30-60 minutes at room temperature. After 30-60 minutes, 20 μl of a solution of 10 nM TAMRA detector (Red detector probe-Echelon) and 2.5 uM of GST-murine GRP (1.5 mg/ml in 17% glycerol) was added per well to stop the reaction. The resulting solution was mixed well and allowed to stand for 90-110 minutes before reading plate. Assay Plates were read on Perkin-Elmer Envision plate readers with appropriate filters for Tamra [BODIPY-TMRI(1,3,4,5)P4]. Data obtained were used to calculate enzymatic activity and enzyme inhibition by inhibitor compounds. It is important to keep Red probe solutions dark. This procedure is adapted from Echelon Biosciences Inc procedure for their PI3-Kinase fluorescence polarization activity Assay kit Product number K-1100.

[3] = system: LNCap prostate tumor cells; test: In vitro cell growth assay (MTS), LNCap; type: cell-based, human; details: three days after drug treatment
Protocol: (§1) Cell lines used were human adenocarcinoma (LoVo), […], prostate (LNCap), breast (MDA468, MCF7), colon (HCT116), renal (HTB44 A498), and ovarian (OVCAR3) tumor cell lines. The tumor cells were plated in 96-well culture plates at approximately 3000 cells per well. One day following plating, various concentrations of inhibitors in DMSO were added to cells (final DMSO concentration in cell assays was 0.25%). Three days after drug treatment, viable cell densities were determined by cell mediated metabolic conversion of the dye MTS, a well-established indicator of cell proliferation in vitro. Cell growth assays were performed using kits purchased from Promega Corporation (Madison, Wis.), following the protocol provided by the vendor. Measuring absorbance at 490 nm generated MTS assay results. Compound effect on cell proliferation was assessed relative to untreated control cell growth.

[4] = system: MDA468 breast tumor cells; test: In vitro cell growth assay (MTS), MDA468; type: cell-based, human; details: three days after drug treatment
Protocol: as §1

Chain of PI3Kα (P42336 whole entry, species assumed): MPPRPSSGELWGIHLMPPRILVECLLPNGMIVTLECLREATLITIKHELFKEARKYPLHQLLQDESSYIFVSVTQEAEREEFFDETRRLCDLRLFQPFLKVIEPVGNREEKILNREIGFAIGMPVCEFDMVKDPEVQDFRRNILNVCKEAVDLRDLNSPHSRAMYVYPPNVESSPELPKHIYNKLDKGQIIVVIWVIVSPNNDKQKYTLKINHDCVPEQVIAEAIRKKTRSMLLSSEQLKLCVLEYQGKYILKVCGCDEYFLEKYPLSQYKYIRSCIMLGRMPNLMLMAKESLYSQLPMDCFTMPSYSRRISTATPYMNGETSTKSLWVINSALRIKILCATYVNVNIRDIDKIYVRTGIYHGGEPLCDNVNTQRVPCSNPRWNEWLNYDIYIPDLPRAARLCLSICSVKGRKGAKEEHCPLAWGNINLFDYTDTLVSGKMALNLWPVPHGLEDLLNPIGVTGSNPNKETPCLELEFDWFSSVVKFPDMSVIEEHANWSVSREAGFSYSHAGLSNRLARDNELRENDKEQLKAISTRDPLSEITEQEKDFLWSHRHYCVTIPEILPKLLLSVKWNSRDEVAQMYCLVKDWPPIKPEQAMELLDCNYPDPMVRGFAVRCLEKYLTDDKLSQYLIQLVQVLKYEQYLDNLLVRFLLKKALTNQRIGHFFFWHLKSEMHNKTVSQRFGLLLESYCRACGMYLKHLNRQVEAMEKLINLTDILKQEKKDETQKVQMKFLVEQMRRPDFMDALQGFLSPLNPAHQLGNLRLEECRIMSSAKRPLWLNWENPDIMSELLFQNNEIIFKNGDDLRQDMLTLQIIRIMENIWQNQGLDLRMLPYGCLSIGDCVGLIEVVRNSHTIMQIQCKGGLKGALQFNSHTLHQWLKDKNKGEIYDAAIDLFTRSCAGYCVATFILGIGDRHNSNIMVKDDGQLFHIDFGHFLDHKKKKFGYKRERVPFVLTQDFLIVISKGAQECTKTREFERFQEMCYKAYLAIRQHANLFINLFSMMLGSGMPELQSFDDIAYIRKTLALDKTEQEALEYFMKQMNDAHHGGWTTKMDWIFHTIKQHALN
Chain of PI3Kα (P27986 whole entry partner, species assumed): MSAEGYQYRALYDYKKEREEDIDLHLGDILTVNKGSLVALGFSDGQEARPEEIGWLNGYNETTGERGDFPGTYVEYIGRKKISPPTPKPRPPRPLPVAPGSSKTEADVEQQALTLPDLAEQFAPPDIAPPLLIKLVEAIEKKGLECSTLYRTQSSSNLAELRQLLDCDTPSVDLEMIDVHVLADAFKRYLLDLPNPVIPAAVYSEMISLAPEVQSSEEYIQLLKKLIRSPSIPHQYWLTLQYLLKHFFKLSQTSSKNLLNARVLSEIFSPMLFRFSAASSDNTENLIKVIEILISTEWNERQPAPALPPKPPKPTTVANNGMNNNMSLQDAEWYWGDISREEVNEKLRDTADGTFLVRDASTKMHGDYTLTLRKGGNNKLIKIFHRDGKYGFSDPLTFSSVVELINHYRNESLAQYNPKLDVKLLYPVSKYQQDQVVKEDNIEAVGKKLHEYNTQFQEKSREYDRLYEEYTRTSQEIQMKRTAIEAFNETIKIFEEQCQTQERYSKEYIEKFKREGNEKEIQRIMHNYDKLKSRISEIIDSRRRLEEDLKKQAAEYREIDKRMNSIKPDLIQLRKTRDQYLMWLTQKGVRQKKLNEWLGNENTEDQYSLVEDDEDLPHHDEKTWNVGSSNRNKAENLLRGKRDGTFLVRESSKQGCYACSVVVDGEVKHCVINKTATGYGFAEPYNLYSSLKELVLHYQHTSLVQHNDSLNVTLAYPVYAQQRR

Structure (SMILES): O=c1cc(Oc2cccc(NCc3ccc(Cl)nc3)c2)c2ccccc2[nH]1
- IC50 [1]: 0.06 µM
- IC50 [2]: 13 µM
- IC50 ([3]; Homo sapiens, LNCaP, 72 h): 3.5 µM
- IC50 ([4]; Homo sapiens, 72 h): 8 µM

Structure (SMILES): O=c1cc(Oc2cccc(NCc3ccsc3)c2)c2ccccc2[nH]1
- IC50 [1]: 0.12 µM
- IC50 [2]: > 10 µM
- IC50 ([3]; Homo sapiens, LNCaP, 72 h): 35 µM

Structure (SMILES): Nc1ncccc1CNc1cccc(Oc2cc(=O)[nH]c3ccccc23)c1
- IC50 [1]: 0.07 µM
- IC50 [2]: > 10 µM
- IC50 ([3]; Homo sapiens, LNCaP, 72 h): 4 µM

Structure (SMILES): O=c1cc(Oc2cccc(NCc3ccc(-n4ccnc4)cc3)c2)c2ccccc2[nH]1
- IC50 [1]: 0.08 µM
- IC50 [2]: > 10 µM
- IC50 ([3]; Homo sapiens, LNCaP, 72 h): 4 µM

Structure (SMILES): O=c1cc(Oc2ccccc2)c2cc(-c3ccncc3)ccc2[nH]1
- IC50 [2]: 3.94 µM
- IC50 ([3]; Homo sapiens, LNCaP, 72 h): 60 µM
- IC50 ([4]; Homo sapiens, 72 h): 60 µM

Structure (SMILES): COc1cccc(Oc2cc(=O)[nH]c3ccccc23)c1
- IC50 [1]: 0.3 µM
- IC50 [2]: > 10 µM
- IC50 ([3]; Homo sapiens, LNCaP, 72 h): 9.3 µM
- IC50 ([4]; Homo sapiens, 72 h): 60 µM

Structure (SMILES): O=c1cc(Oc2ccccc2)c2ccc(Cl)cc2[nH]1
- IC50 [1]: > 20 µM
- IC50 [2]: 0.308 µM

Structure (SMILES): Nc1ccc(Oc2cc(=O)[nH]c3ccccc23)cc1
- IC50 [1]: 0.16 µM
- IC50 [2]: 2.22 µM
- IC50 ([3]; Homo sapiens, LNCaP, 72 h): 7.5 µM
- IC50 ([4]; Homo sapiens, 72 h): 27 µM

Structure (SMILES): CC(=O)Nc1ccc(Oc2cc(=O)[nH]c3ccccc23)cc1
- IC50 [1]: 6 µM
- IC50 [2]: 7.28 µM

Structure (SMILES): O=c1cc(Oc2ccccc2)c2cc(-c3ccccc3)ccc2[nH]1
- IC50 [1]: 8.2 µM
- IC50 [2]: 8.23 µM

Structure (SMILES): O=c1cc(Oc2ccccc2)c2cc(Br)ccc2[nH]1
- IC50 [1]: > 20 µM
- IC50 [2]: > 10 µM

Structure (SMILES): Nc1ccc2[nH]c(=O)cc(Oc3ccccc3)c2c1
- IC50 [1]: > 20 µM
- IC50 [2]: 2.57 µM
- IC50 ([3]; Homo sapiens, LNCaP, 72 h): > 60 µM
- IC50 ([4]; Homo sapiens, 72 h): > 60 µM

Structure (SMILES): O=c1cc(Oc2ccccc2)c2cc(N3CCOCC3)ccc2[nH]1
- IC50 [1]: 16.5 µM
- IC50 [2]: 1.17 µM
- IC50 ([3]; Homo sapiens, LNCaP, 72 h): 7.5 µM
- IC50 ([4]; Homo sapiens, 72 h): 27 µM

Structure (SMILES): O=c1cc(Oc2ccccc2)c2cc(-c3ccoc3)ccc2[nH]1
- IC50 [1]: 7.3 µM
- IC50 [2]: 6.96 µM
- IC50 ([3]; Homo sapiens, LNCaP, 72 h): > 60 µM
- IC50 ([4]; Homo sapiens, 72 h): 4.5 µM

Structure (SMILES): O=c1cc(Oc2ccc(Br)cc2)c2ccccc2[nH]1
- IC50 [1]: 2.2 µM
- IC50 [2]: 4.11 µM
- IC50 ([3]; Homo sapiens, LNCaP, 72 h): > 60 µM
- IC50 ([4]; Homo sapiens, 72 h): 50 µM

Structure (SMILES): Cc1ccccc1Oc1cc(=O)[nH]c2ccccc12
- IC50 [1]: 2 µM
- IC50 [2]: 7.91 µM
- IC50 ([3]; Homo sapiens, LNCaP, 72 h): 8 µM
- IC50 ([4]; Homo sapiens, 72 h): > 60 µM

Structure (SMILES): COc1ccccc1Oc1cc(=O)[nH]c2ccccc12
- IC50 [1]: 9.1 µM
- IC50 [2]: 4.68 µM
- IC50 ([3]; Homo sapiens, LNCaP, 72 h): > 60 µM
- IC50 ([4]; Homo sapiens, 72 h): > 60 µM

Structure (SMILES): O=c1cc(Oc2ccccc2)c2ccc(Br)cc2[nH]1
- IC50 [1]: > 20 µM
- IC50 [2]: 5.39 µM
- IC50 ([3]; Homo sapiens, LNCaP, 72 h): > 60 µM
- IC50 ([4]; Homo sapiens, 72 h): > 60 µM

Structure (SMILES): O=c1cc(Oc2ccc(-c3ccccc3)cc2)c2ccccc2[nH]1
- IC50 [1]: > 20 µM
- IC50 [2]: 0.938 µM
- IC50 ([3]; Homo sapiens, LNCaP, 72 h): > 60 µM
- IC50 ([4]; Homo sapiens, 72 h): > 60 µM

Structure (SMILES): O=c1cc(Oc2ccc(-c3cccnc3)cc2)c2ccccc2[nH]1
- IC50 [1]: 1.75 µM
- IC50 [2]: 3.29 µM
- IC50 ([3]; Homo sapiens, LNCaP, 72 h): 2.15 µM
- IC50 ([4]; Homo sapiens, 72 h): 16.6 µM

Structure (SMILES): Nc1ccc(-c2ccc(Oc3cc(=O)[nH]c4ccccc34)cc2)cc1
- IC50 [1]: > 20 µM
- IC50 [2]: 0.778 µM
- IC50 ([3]; Homo sapiens, LNCaP, 72 h): 2 µM
- IC50 ([4]; Homo sapiens, 72 h): 60 µM

Structure (SMILES): O=c1cc(Oc2ccc(-c3ccsc3)cc2)c2ccccc2[nH]1
- IC50 [1]: > 20 µM
- IC50 [2]: 2.51 µM
- IC50 ([3]; Homo sapiens, LNCaP, 72 h): > 60 µM
- IC50 ([4]; Homo sapiens, 72 h): > 60 µM

Structure (SMILES): CC(=O)Nc1ccc2[nH]c(=O)cc(Oc3ccccc3)c2c1
- IC50 [1]: > 20 µM
- IC50 [2]: > 10 µM
- IC50 ([3]; Homo sapiens, LNCaP, 72 h): > 60 µM
- IC50 ([4]; Homo sapiens, 72 h): > 60 µM

Structure (SMILES): O=c1cc(Oc2ccc(-c3ccoc3)cc2)c2ccccc2[nH]1
- IC50 [1]: > 20 µM
- IC50 [2]: 1.94 µM
- IC50 ([3]; Homo sapiens, LNCaP, 72 h): > 60 µM
- IC50 ([4]; Homo sapiens, 72 h): > 60 µM

Structure (SMILES): CC(=O)c1ccc(Oc2cc(=O)[nH]c3ccccc23)cc1
- IC50 [1]: 1.85 µM
- IC50 [2]: 1.66 µM
- IC50 ([3]; Homo sapiens, LNCaP, 72 h): 13 µM
- IC50 ([4]; Homo sapiens, 72 h): > 60 µM

Structure (SMILES): N#Cc1ccc(Oc2cc(=O)[nH]c3ccccc23)cc1
- IC50 [1]: 7.6 µM
- IC50 [2]: 2.09 µM
- IC50 ([3]; Homo sapiens, LNCaP, 72 h): 5.5 µM
- IC50 ([4]; Homo sapiens, 72 h): 48 µM

Structure (SMILES): O=c1cc(Oc2ccc(Cl)cc2)c2ccccc2[nH]1
- IC50 [1]: 0.96 µM
- IC50 [2]: 2.48 µM
- IC50 ([3]; Homo sapiens, LNCaP, 72 h): > 60 µM
- IC50 ([4]; Homo sapiens, 72 h): 49 µM

Structure (SMILES): O=c1cc(Oc2cccc(NCc3ccccc3)c2)c2ccccc2[nH]1
- IC50 [1]: 0.14 µM
- IC50 [2]: 3.78 µM
- IC50 ([3]; Homo sapiens, LNCaP, 72 h): 6 µM

Structure (SMILES): COC[C@@H]1CCCN1CCNc1ccc(-c2cccc(Oc3cc(=O)[nH]c4ccccc34)c2)cc1
- IC50 [1]: 0.13 µM
- IC50 [2]: 11 µM
- IC50 ([3]; Homo sapiens, LNCaP, 72 h): 5 µM

Structure (SMILES): CN1CCC(N(C)c2cccc(-c3cccc(Oc4cc(=O)[nH]c5ccccc45)c3)c2)CC1
- IC50 [1]: 0.33 µM
- IC50 [2]: 8.31 µM
- IC50 ([3]; Homo sapiens, LNCaP, 72 h): 3 µM

Structure (SMILES): CN(C)CCCN1CCN(c2cccc(Oc3cc(=O)[nH]c4ccccc34)c2)CC1
- IC50 [1]: 0.72 µM
- IC50 ([3]; Homo sapiens, LNCaP, 72 h): 7 µM
- IC50 ([4]; Homo sapiens, 72 h): 10.5 µM

Structure (SMILES): CC(C)(C)CNc1ncccc1CNc1cccc(Oc2cc(=O)[nH]c3ccccc23)c1
- IC50 [1]: 0.16 µM
- IC50 ([3]; Homo sapiens, LNCaP, 72 h): 4.2 µM
- IC50 ([4]; Homo sapiens, 72 h): 10 µM

Structure (SMILES): CC(C)(C)OC(=O)Nc1ccc(CNc2cccc(Oc3cc(=O)[nH]c4ccccc34)c2)cn1
- IC50 [1]: 0.42 µM
- IC50 ([3]; Homo sapiens, LNCaP, 72 h): 12 µM
- IC50 ([4]; Homo sapiens, 72 h): 60 µM

Structure (SMILES): O=c1cc(Oc2cccc(NCc3ccc(F)nc3)c2)c2ccccc2[nH]1 [drawing 208]
- IC50 [2]: 9.54 µM
- IC50 [3]: 4 µM
- IC50 [4]: 11 µM

Structure (SMILES): O=c1cc(Oc2cccc(NCc3ccc(F)nc3)c2)c2ccccc2[nH]1 [drawing 218]
- IC50 [3]: 13 µM
- IC50 [4]: 50 µM

Structure (SMILES): O=c1cc(Oc2cccc(OCc3ccccc3)c2)c2ccccc2[nH]1 [drawing 351]
- IC50 [2]: 4.15 µM
- IC50 ([3]; Homo sapiens, LNCaP, 72 h): > 60 µM
- IC50 ([4]; Homo sapiens, 72 h): > 60 µM

Structure (SMILES): CN1CCN(c2cccc(Oc3cc(=O)[nH]c4ccccc34)c2)CC1 [drawing 359]
- IC50 [1]: 0.37 µM
- IC50 [2]: 10.3 µM
- IC50 ([3]; Homo sapiens, LNCaP, 72 h): 0.62 µM

Structure (SMILES): O=c1cc(Oc2ccccn2)c2ccccc2[nH]1 [drawing 389]
- IC50 [1]: 9.7 µM
- IC50 [2]: 8.74 µM
- IC50 ([3]; Homo sapiens, LNCaP, 72 h): > 60 µM

— patent US20100068204A1, “4-ARYLOXYQUINOLIN-2(1H)-ONES AS MTOR KINASE AND PI3 KINASE INHIBITORS, FOR USE AS ANTI-CANCER AGENTS” (Wyeth, priority 2008, published 2010)
